The values that follow come from patent US10590143B2, “Herbicidally active (alkynyl-phenyl)-substituted cyclic dione compounds and derivatives thereof” (Syngenta Limited, priority 2013, dated 2020).

The structures appear in SMILES notation. Read-outs that look alike come from different tables or passages of the source.

Common to all, as to assay type: in vivo
Assay [1] concerns Abutilon theophrasti (ABUTH). The experiment in a line: Biological Example 1 glasshouse assay for herbicidal activity. The following applies: 312 h, 13 days after application, read-out: percentage phytotoxicity ABUTH. On the procedure:
(§1) Seeds of a variety of test plant species were sown in standard soil** in pots. After cultivation for one day (pre-emergence) or after 8 days cultivation (post-emergence) under controlled conditions in a glasshouse (at 24/16° C., day/night; 14 hours light; 65% humidity), the plants were sprayed with an aqueous spray solution derived from the formulation of the technical active ingredient (the test herbicide) in acetone/water (50:50) solution containing 0.5% Tween 20 (polyoxyethylene sorbitan monolaurate, CAS Reg. No. 9005-64-5). The test plants were then grown on under controlled conditions in a glasshouse (at 24/16° C., day/night; 14 hours light; 65% humidity) and watered twice daily. 13 Days after application of the test herbicide, for pre- and post-emergence, the test was evaluated visually for percentage phytotoxicity to each plant (where 100%=total damage to plant; 0%=no damage to plant). Generally, each test herbicide is only tested on 1 plant per plant species for each application rate tested and for each application timing. **The “standard soil” in Biological Example 1 is usually a “sand” or “sandy loam” type of soil.
(§2) Dicotyledonous weeds: ABUTH=Abutilon theophrasti; AMARE=Amaranthus retroflexus. Grassy monocotyledonous weeds: SETFA=Setaria faberi; ALOMY=Alopecurus myosuroides; ECHCG=Echinochloa crus-galli; ZEAMX=Zea mays (corn, maize, e.g. volunteer corn).

The subject of assay [2] is Alopecurus myosuroides (ALOMY). The description is as above. The following applies: 312 h, 13 days after application, read-out: percentage phytotoxicity ALOMY. On the procedure: as §1, §2
The test system of assay [3] is Amaranthus retroflexus (AMARE). The description is as above. The following applies: Amaranthus retroflexus, 312 h, 13 days after application, read-out: percentage phytotoxicity AMARE. On the procedure: as §1, §2
In assay [4] the test system is Echinochloa crus-galli (ECHCG). The assay is described as above. To be noted: Echinochloa crus-galli, 312 h, 13 days after application, read-out: percentage phytotoxicity ECHCG. On the procedure: as §1, §2
Assay [5] concerns Setaria faberi (SETFA). The assay is described as above. The following applies: 312 h, 13 days after application, read-out: percentage phytotoxicity SETFA. On the procedure:
as §1, §2

Assay [6] has as its system Zea mays (ZEAMX, corn, maize, e.g. volunteer corn). The assay is described as above. The following applies: Zea mays, 312 h, 13 days after application, read-out: percentage phytotoxicity ZEAMX. The method, then:
as §1, §2

Assay [7] has as its system Digitaria sanguinalis (DIGSA). Kind of assay: Biological Example 3 glasshouse assay for herbicidal activity, using various adjuvant systems. The following applies: post-emergence, 8 g/ha, 14 or 15 DAA; adjuvant 0.5% v/v + 1.0% AMS + 12.5% IPA: TEHP (A3-A7), Adigor (A8, P1, P2, P4), Hexamoll DINCH (A1). On the procedure: (§3) • Materials and Methods • Herbicide Application: Post-emergence foliar spray application, 200 L/ha, usually one or two replicates for the weeds (depending on application rate), and two replicates for soybean. • Climate: Standard warm conditions (tropical), in glasshouse. Specifically, the glasshouse bay conditions are 24° C./18° C. day/night; 16/8 hours light/dark; 65% humidity. • Plants: The herbicidal application takes place at the following growth stages for plants which include inter alia one or more of the following plants (usually the herbicidal application takes place on at least the following plants: DIGSA, ELEIN, SETFA, ZEAMX, GLXMA Nikko, and GLXMA TMG133, and often also either BRADC or BRAPP): • Brachiaria decumbens (BRADC)—growth stage (GS) 12 or 13 (or GS 12)—or, if BRADC is not used, then usually Brachiaria platyphylla (BRAPP)—growth stage 12 or 13 • Digitaria sanguinalis (DIGSA)—growth stage 12 or 13 • Eleusine indica (ELEIN)—growth stage 12 or 13 • Setaria faberi (SETFA)—growth stage 12 or 13 • Echinochloa crus-galli (ECHCG)—growth stage 12 or 13 • Sorghum halepense (annual) (SORHA)—growth stage 12 or 13 • Panicum dichotomiflorum (PANDI)—growth stage 12 or 13 • Zea mays (ZEAMX, maize/corn, e.g. can occur as volunteer corn) cultivar “Garland”—growth stage 12 or 13 • Glycine max (GLXMA, soybean) cultivar “Nikko”—growth stage: 1st trifoliate • Glycine max (GLXMA, soybean) cultivar “TMG133”—which is Roundup Ready™ glyphosate-tolerant soybean cultivar TMG133 (typically available from Monsanto in Brazil)—growth stage: 1st trifoliate. • Herbicidal Compositions Tested:
(§4) Each test compound is applied with one of the following adjuvant systems (all percentages are final concentrations in the aqueous spray mixture): • Adjuvant system 1: 0.5% v/v Adigor™*, 1.0% v/v AMS (ammonium sulphate) and 12.5% v/v IPA (isopropyl alcohol). • Adjuvant system 2: 0.5% v/v Hexamoll™ DINCH**, 1.0% v/v AMS (ammonium sulphate) and 12.5% v/v IPA (isopropyl alcohol). • Adjuvant system 3: 0.5% v/v tris-(2-ethylhexyl)phosphate (“TEHP”), 1.0% v/v AMS (ammonium sulphate) and 12.5% v/v IPA (isopropyl alcohol). ***Adigor™ (currently available in many countries from Syngenta) is an emulsifiable concentrate which consists of: • (i) ethoxylated alcohols, which typically includes ethoxylated higher alcohols (e.g. ethoxylates of alcohols wherein the alcohols are within the range of C12-C22); and • (ii) a mixture of heavy aromatic hydrocarbons, which typically includes (e.g. includes 50% or more by weight of the heavy aromatic hydrocarbons of) a mixture of naphthalenes each of which is substituted by one or more alkyls wherein the alkyl(s) in total have 1-4 carbon atoms per naphthalene molecule (e.g. Solvesso 200 ND™); and • (iii) about 47% w/w and/or about 45% w/v (with respect to the emulsifiable concentrate) of methylated rapeseed oil (rapeseed oil methyl ester) (e.g. Agnique ME 18 RD-F™), as an adjuvant. **Hexamoll™ DINCH™ is 1,2-cyclohexane dicarboxylic acid di-isononyl ester
(§5) Seeds of the weed (including volunteer) plants, typically including inter alia Digitaria sanguinalis (DIGSA), Eleusine indica (ELEIN), Setaria faberi (SETFA), Zea mays (ZEAMX, corn), and sometimes also [either Brachiaria decumbens (BRADC) or Brachiaria platyphylla (BRAPP)], are sown in seed trays (troughs) containing clay loam soil (pH 7.0, 2.2% organic matter, “Trough Mix A”); and soybean seed is sown in pots containing the same soil with 3 soybean seedlings per pot. The plants are sprayed with the test herbicide when they reach the growth stages mentioned above.
(§6) The test herbicidal solutions are prepared by mixing the appropriate aliquots of the test substance(s) and one of the adjuvant systems indicated above*** in deionised water to give the desired treatment concentration.
(§7) The herbicidal application is made as a foliar spray, using a tracksprayer. Following the herbicidal application, the plants are watered twice per day for the duration of the test. […]

For a further assay, the system named is Eleusine indica (ELEIN). The assay is described as above. To be noted: post-emergence, 8 g/ha, 14 or 15 DAA; adjuvant 0.5% v/v + 1.0% AMS + 12.5% IPA: TEHP (A3-A7), Adigor (A8, P1, P2, P4), Hexamoll DINCH (A1). On the procedure:
as §3, §4, §5, §6, §7

For assay [8], the system named is Setaria faberi (SETFA). Described as above. To be noted: post-emergence, 8 g/ha, 14 or 15 DAA; adjuvant 0.5% v/v + 1.0% AMS + 12.5% IPA: TEHP (A3-A7), Adigor (A8, P1, P2, P4), Hexamoll DINCH (A1). The method, then:
as §3, §4, §5, §6, §7

In the next assay the test system is Zea mays (ZEAMX, corn). The description is as above. To be noted: post-emergence, 8 g/ha, 14 or 15 DAA; adjuvant 0.5% v/v + 1.0% AMS + 12.5% IPA: TEHP (A3-A7), Adigor (A8, P1, P2, P4), Hexamoll DINCH (A1). On the procedure:
as §3, §4, §5, §6, §7

Setting [9] is: post-emergence, post-emergence, 30 g/ha.

With `CC#Cc1cc(F)c(C2C(=O)C3CCC(C3)C2=O)c(OCC(F)(F)F)c1` (centres unmarked) [Compound A6], the pest or weed control at 250 g/ha in assay [1] (post-emergence, post-emergence) stood at 20%; in assay [1] (pre-emergence, pre-emergence), 30%; in assay [2] (post-emergence), 80%; in assay [2] (pre-emergence), 60%; in [3] (post-emergence, post-emergence), 50%; in [3] (pre-emergence, pre-emergence) it was 60%. The pest or weed control at 250 g/ha in assay [4] (post-emergence, post-emergence) was 100%; in assay [4] (pre-emergence, pre-emergence) it was 80%; with Setaria faberi (SETFA) [5] (post-emergence, post-emergence), 80%; with Setaria faberi (SETFA) [5] (pre-emergence, pre-emergence), 70%; in assay [6] (post-emergence, post-emergence), 100%; in assay [6] (pre-emergence, pre-emergence) it was 80%. In addition, in [7], the “percentage control of (percentage phytotoxicity on) Digitaria sanguinalis (DIGSA)” value was found to be 5%. Besides, in the assay on Eleusine indica (ELEIN), the “percentage control of (percentage phytotoxicity on) Eleusine indica (ELEIN)” value (shortened to “percentage control … (ELEIN)”) amounted to 5%. For the same molecule, in the assay on Setaria faberi (SETFA) [8], the “percentage control of (percentage phytotoxicity on) Setaria faberi (SETFA)” value was found to be 25%. Moreover, in the assay on Zea mays (ZEAMX, corn), the “percentage control of (percentage phytotoxicity on) Zea mays (ZEAMX, corn)” value came to 0%.
As to `CC#Cc1cc(F)c(C2C(=O)C3CCC(C3)C2=O)c(OCCOC)c1` (centres unmarked) [Compound A5], the pest or weed control at 250 g/ha in assay [1] (post-emergence, post-emergence) worked out at 30%; in assay [1] (pre-emergence, pre-emergence), 20%; in assay [2] (post-emergence) it was 70%; in assay [2] (pre-emergence), 40%; in assay [3] (post-emergence, post-emergence) it was 30%; in assay [3] (pre-emergence, pre-emergence) it was 50%. Further, the pest or weed control at 250 g/ha amounted to 100% in assay [4] (post-emergence, post-emergence); 80% in assay [4] (pre-emergence, pre-emergence); 80% in the assay with Setaria faberi (SETFA) [5] (post-emergence, post-emergence); 60% in the assay on Setaria faberi (SETFA) [5] (pre-emergence, pre-emergence); 100% in assay [6] (post-emergence, post-emergence); 90% in assay [6] (pre-emergence, pre-emergence). Besides, the “percentage control of (percentage phytotoxicity on) Digitaria sanguinalis (DIGSA)” value in assay [7] worked out at 0%. Also, the “percentage control … (ELEIN)” value in the assay on Eleusine indica (ELEIN) is given as 0%. Besides, the “percentage control of (percentage phytotoxicity on) Setaria faberi (SETFA)” value in the assay with Setaria faberi (SETFA) [8] is given as 25%.
In the case of `CC#Cc1cc(Br)c(C2C(=O)C3CCC(C3)C2=O)c(OC)c1` (centres unmarked) [Compound A3], the pest or weed control at 30 g/ha is 0% in [1] (setting [9]); 70% in [2] (post-emergence, 30 g/ha); 0% in assay [3] (setting [9]); 90% in assay [4] (setting [9]); 80% in the assay on Setaria faberi (SETFA) [5] (setting [9]); 90% in assay [6] (setting [9]). The pest or weed control at 250 g/ha in assay [1] (post-emergence, post-emergence) turned out to be 10%; in [1] (pre-emergence, pre-emergence), 10%; in assay [2] (post-emergence), 100%; in [2] (pre-emergence), 100%; in [3] (post-emergence, post-emergence), 20%; in assay [3] (pre-emergence, pre-emergence), 20%. In addition, the pest or weed control at 250 g/ha in assay [4] (post-emergence, post-emergence) is 100%; in assay [4] (pre-emergence, pre-emergence), 100%; in the assay with Setaria faberi (SETFA) [5] (post-emergence, post-emergence) it was 100%; in the assay on Setaria faberi (SETFA) [5] (pre-emergence, pre-emergence), 100%; in [6] (post-emergence, post-emergence), 100%; in assay [6] (pre-emergence, pre-emergence) it was 100%. For the same molecule, the “percentage control … (ELEIN)” value in the assay with Eleusine indica (ELEIN) was 55%.
